Assay results published in patent publication US20020086278A1, “CHROMOGENIC MEDIA CONTAINING BLOOD OR HEMIN” (priority 1999, published 2002).
Where two headings read alike, the source gives them in different places.

Columns and labels:
E. faecium (enfu) = experiment: Example 3: colony color on chromogenic TSA II with 5% sheep blood (chromogen in medium); format: cell-based
Salmonella spp. (sasp) = format: cell-based; conditions: for Colony Color: CO2
Group B Strep. 12386 = experiment: Example 1: growth and colony color on plates surface-spread with chromogen; format: cell-based; conditions: for Color: Group B Strep 12386
[1] = test system: Streptococcus pneumoniae 6303; experiment: as above; format: cell-based; conditions: TSA Plain; S. pneu: 6303
S. milleri (stmi) = experiment: Example 3: colony color on chromogenic TSA II with 5% sheep blood (chromogen in medium); format: cell-based; conditions: for Colony Color: stmi 6249, 21 h
milu 9341 = experiment: as above; format: cell-based
[2] = test system: Klebsiella pneumoniae (klpn); experiment: as above; format: cell-based; conditions: for Colony Color: CO2
N. gonorrhoeae 35201 = experiment: Example 1: growth and colony color on plates surface-spread with chromogen; format: cell-based; conditions: Substrate on Choclate II Agar; N. gono. 35201
Escherichia coli 25922 = experiment: as above; format: cell-based; conditions: TSA II 5SB; E. coli 25922
S. pneumoniae (stpn) = experiment: Example 3: colony color on chromogenic TSA II with 5% sheep blood (chromogen in medium); format: cell-based; conditions: for Colony Color on Various Chromogenic TSA II with 5% Sheep Blood: 18 h
[3] = test system: Citrobacter freundii (cifr); experiment: as above; format: cell-based; conditions: for Colony Color: CO2
[4] = test system: Branhamella catarrhalis 25238; experiment: Example 1: growth and colony color on plates surface-spread with chromogen; format: cell-based; conditions: TSA Plain; B. catt 25258
S. agalactiae 12386 = experiment: Example 2: effect of incubation conditions on colony color formation; format: cell-based, Streptococcus agalactiae; conditions: 0.004 g/plate, 24 h, CO2
[5] = test system: Staphylococcus aureus (stau); experiment: Example 3: colony color on chromogenic TSA II with 5% sheep blood (chromogen in medium); format: cell-based
[6] = test system: Branhamella catarrhalis (brca); experiment: as above; format: cell-based; conditions: for Colony Color: CO2
Candida albicans (caal) = experiment: as above; format: cell-based; conditions: for Colony Color: caal 10231
[7] = test system: Gardnerella vaginalis 14019; experiment: Example 1: growth and colony color on plates surface-spread with chromogen; format: cell-based; conditions: Substrate on Choclate II Agar; G. vag. 14019
S pyogenes (stpy) = experiment: Example 3: colony color on chromogenic TSA II with 5% sheep blood (chromogen in medium); format: cell-based; conditions: for Colony Color on Various Chromogenic TSA II with 5% Sheep Blood: 18 h
[8] = test system: Entercoccus faecalis (enfa); experiment: as above; format: cell-based; conditions: for Colony Color: CO2
[9] = test system: E. coli (non-O157) (esco); format: cell-based
[10] = test system: Streptococcus agalactiae (stag); experiment: Example 3: colony color on chromogenic TSA II with 5% sheep blood (chromogen in medium); format: cell-based
[11] = test system: Aeromonas hydrophilia (aehy); experiment: as above; format: cell-based; conditions: CO2
[12] = test system: Serratia marcescens (sema); experiment: as above; format: cell-based; conditions: for Colony Color: sema 13880, CO2
[13] = test system: Pseudomonas aeruginosa (psae); experiment: as above; format: cell-based; conditions: CO2
[14] = chromogenic TSA II with 5% Sheep Blood, 0.1 g/l, 1 strain tested
[15] = chromogenic TSA II with 5% Sheep Blood, 0.1 g/l, 2 strains tested
[16] = chromogenic TSA II with 5% Sheep Blood, 0.1 g/l, 3 strains tested

## OC[C@H]1O[C@@H](Oc2c[nH]c3ccc(Br)c(Cl)c23)[C@H](O)[C@@H](O)[C@@H]1O [X-Glucoside, 5-Br-4-Cl-3-indolyl-β-D-glucopyranoside]
E. faecium (enfu); [14]
  Colony Color (Summary): +
E. faecium (enfu); enfu 49032, CO2, 18 h
  Colony Color: db
Salmonella spp. (sasp); [15]
  Colony Color (Summary): 0
Salmonella spp. (sasp); saty 19430, 18 h
  Colony Color: 0
Salmonella spp. (sasp); saty 19430, 21 h
  Colony Color: 0
Salmonella spp. (sasp); satym 14028, 18 h
  Colony Color: 0
Salmonella spp. (sasp); satym 14028, 21 h
  Colony Color: 0
Group B Strep. 12386; Choc II
  Color: blue
Group B Strep. 12386; Summary of Table I, Group B Strep. 12386
  Substrates Producing Color: X-Glucoside, X-
Group B Strep. 12386; TSA II 5SB
  Color: blue
Group B Strep. 12386; TSA Plain
  Color: blue
[1]
  Growth: <
S. milleri (stmi); [15]
  Colony Color (Summary): 0
S. milleri (stmi); stmi 6242, CO2, 18 h
  Colony Color on Various Chromogenic TSA II with 5% Sheep Blood: 0
S. milleri (stmi); CO2
  Colony Color: 0
S. milleri (stmi); air
  Colony Color: 0
Milu 9341; CO2, 18 h
  Colony Color: ly
Milu 9341; CO2, 21 h
  Colony Color: 0
[2]; [16]
  Colony Color (Summary): +
[2]; klpn 13883, 21 h
  Colony Color: gb
[2]; klpn 33495, 18 h
  Colony Color: gb
[2]; klpn 33606, 18 h
  Colony Color: gb
[2]; klpn 33606, 21 h
  Colony Color: gb
N. gonorrhoeae 35201
  Growth: <
Escherichia coli 25922
  Growth: 4
S. pneumoniae (stpn); stpn 1259, CO2, 21 h
  Colony Color: 0
S. pneumoniae (stpn); stpn 1260, CO2, 21 h
  Colony Color: 0
S. pneumoniae (stpn); stpn 1628, CO2, 21 h
  Colony Color: 0
S. pneumoniae (stpn); stpn 6303, CO2, 24 h
  Colony Color: 0
S. pneumoniae (stpn); stpn 6303, air, 24 h
  Colony Color: 0
S. pneumoniae (stpn); stpn 6305, CO2, 24 h
  Colony Color: 0
S. pneumoniae (stpn); stpn 6305, air, 24 h
  Colony Color: 0
S. pneumoniae (stpn); stpn t259, CO2
  Colony Color on Various Chromogenic TSA II with 5% Sheep Blood: 0
S. pneumoniae (stpn); stpn t260, CO2
  Colony Color on Various Chromogenic TSA II with 5% Sheep Blood: 0
S. pneumoniae (stpn); stpn t331, CO2
  Colony Color on Various Chromogenic TSA II with 5% Sheep Blood: 0
S. pneumoniae (stpn); stpn t628, CO2
  Colony Color on Various Chromogenic TSA II with 5% Sheep Blood: bg
[3]; [15]
  Colony Color (Summary): 0
[3]; cifr 8454, 18 h
  Colony Color: 0
[3]; cifr 8454, 21 h
  Colony Color: 0
[3]; cifr 33128, 18 h
  Colony Color: 0
[3]; cifr 33128, 21 h
  Colony Color: 0
[4]
  Growth: <
S. agalactiae 12386; Chocolate II Agar
  Colony Color: blue (d)
S. agalactiae 12386; TSA II 5% Sheep Blood
  Colony Color: blue (d)
[5]; chromogenic TSA II with 5% Sheep Blood, 0.1 g/l, 5 strains tested
  Colony Color (Summary): 0
[5]; stau 1006, CO2, 21 h
  Colony Color: 0
[5]; stau 1007, CO2, 21 h
  Colony Color: 0
[5]; stau 1008, CO2, 21 h
  Colony Color: 0
[5]; stau 1009, CO2, 21 h
  Colony Color: 0
[5]; stau 25923, CO2, 18 h
  Colony Color: 0
[5]; stau 25923, CO2, 24 h
  Colony Color: 0
[5]; stau 25923, air, 24 h
  Colony Color: 0
[5]; stau t006, CO2, 18 h
  Colony Color on Various Chromogenic TSA II with 5% Sheep Blood: 0
[5]; stau t007, CO2, 18 h
  Colony Color on Various Chromogenic TSA II with 5% Sheep Blood: 0
[5]; stau t008, CO2, 18 h
  Colony Color on Various Chromogenic TSA II with 5% Sheep Blood: 0
[5]; stau t009, CO2, 18 h
  Colony Color on Various Chromogenic TSA II with 5% Sheep Blood: 0
[6]; brca 25238, 18 h
  Colony Color: 0
[6]; brca 25238, 21 h
  Colony Color: 0
[6]; brca 25240, 18 h
  Colony Color: 0
[6]; brca 25240, 21 h
  Colony Color: 0
[6]; [15]
  Colony Color (Summary): 0
Candida albicans (caal); CO2, 18 h
  Colony Color: 0
Candida albicans (caal); CO2, 24 h
  Colony Color: 0
Candida albicans (caal); air, 24 h
  Colony Color: 0
Candida albicans (caal); [15]
  Colony Color (Summary): 0
[7]
  Growth: <
S pyogenes (stpy); 4 of 7 S. pyogenes, X-glucoside TSA II
  Colony Color: light grey blue
S pyogenes (stpy); stpy 1027, CO2, 21 h
  Colony Color: 0
S pyogenes (stpy); stpy 1028, CO2, 21 h
  Colony Color: lgb
S pyogenes (stpy); stpy 1029, CO2, 21 h
  Colony Color: lgb
S pyogenes (stpy); stpy 1030, CO2, 21 h
  Colony Color: gb
S pyogenes (stpy); stpy 19615, CO2, 21 h
  Colony Color: gb
S pyogenes (stpy); stpy 19615, air, 21 h
  Colony Color: lgb
S pyogenes (stpy); stpy 49117, CO2, 21 h
  Colony Color: 0
S pyogenes (stpy); stpy 49117, air, 21 h
  Colony Color: 0
S pyogenes (stpy); stpy 51339, CO2
  Colony Color on Various Chromogenic TSA II with 5% Sheep Blood: 0
S pyogenes (stpy); stpy 51339, CO2, 21 h
  Colony Color: 0
S pyogenes (stpy); stpy 51339, air, 21 h
  Colony Color: lgb
S pyogenes (stpy); stpy t027, CO2
  Colony Color on Various Chromogenic TSA II with 5% Sheep Blood: 0
S pyogenes (stpy); stpy t028, CO2
  Colony Color on Various Chromogenic TSA II with 5% Sheep Blood: 0
S pyogenes (stpy); stpy t029, CO2
  Colony Color on Various Chromogenic TSA II with 5% Sheep Blood: 0
S pyogenes (stpy); stpy t030, CO2
  Colony Color on Various Chromogenic TSA II with 5% Sheep Blood: lgb
[8]; chromogenic TSA II with 5% Sheep Blood, 0.1 g/l, 6 strains tested
  Colony Color (Summary): +
[8]; enfa 597, 18 h
  Colony Color: db
[8]; enfa 10741, 18 h
  Colony Color: db
[8]; enfa 10741, 21 h
  Colony Color: db
[8]; enfa 12953, 18 h
  Colony Color: db
[8]; enfa 12953, 21 h
  Colony Color: db
[8]; enfa 14506, 18 h
  Colony Color: db
[8]; enfa 14506, 21 h
  Colony Color: db
[8]; enfa 29212, 18 h
  Colony Color: db
[8]; enfa 29212, 21 h
  Colony Color: db
[9]; [16]
  Colony Color (Summary): 0
[9]; esco 11775, CO2, 18 h
  Colony Color: 0
[9]; esco 11775, CO2, 21 h
  Colony Color: 0
[9]; esco 25922, CO2, 24 h
  Colony Color: 0
[9]; esco 25922, air, 24 h
  Colony Color: 0
[9]; esco 33605, CO2, 18 h
  Colony Color: 0
[9]; esco 33605, CO2, 21 h
  Colony Color: 0
[10]; Group B Strep on X-glucoside TSA II
  Colony hemolytic activity: slightly reduced
[10]; Group B Strep, 3 of 3 strains, X-glucoside TSA II
  Colony Color: blue
[10]; [16]
  Colony Color (Summary): +
[10]; on X-glucoside TSA II
  CAMP test: works well
[10]; stag 4768, air, 21 h
  Colony Color: lb
[11]; aehy 7965, 18 h
  Colony Color: 0
[11]; aehy 7965, 21 h
  Colony Color: 0
[11]; aehy 7966, 18 h
  Colony Color: 0
[11]; aehy 49847, 18 h
  Colony Color: gb
[11]; aehy 49847, 21 h
  Colony Color: gb
[12]; [14]
  Colony Color (Summary): +
[12]; 18 h
  Colony Color: bg
[12]; 21 h
  Colony Color: gb
[13]; psae 9027, 18 h
  Colony Color: 0
[13]; psae 9027, 21 h
  Colony Color: 0
[13]; psae 15442, 18 h
  Colony Color: 0
[13]; psae 15442, 21 h
  Colony Color: 0
[13]; psae 33607, 18 h
  Colony Color: 0
[13]; psae 33607, 21 h
  Colony Color: lgb
